Reference: patent US5484803A, “Transcutaneous in vivo activation of photosensitive agents in blood” (priority 1995, dated 1996)

Legend:
[1] = Pharmacokinetic studies: BPD concentration in plasma; type: in vivo, Balb/c mice; details: for Plasma Conc.: liposomal BPD
Method: (§1) Determination of BPD Concentration in Plasma: Plasma samples were obtained by centrifugation of blood collected from mice and stored frozen at -20° C. until assessment. The concentration of BPD in the samples was determined by fluorometry using a Jasco Model FP-770 (Japan Spectroscopic Co.) spectrofluorometer and a microcuvette (Far UV Quartz Cell, Starna Cells Inc.). Excitation and emission wavelengths were 439 and 699 nm, respectively. Plasma samples were diluted 20-fold with PBS containing 1% Triton® X-100 immediately before fluorescence was determined. BPD standards were prepared in 5% mouse plasma in PBS with 1% Triton® X-100. Under these conditions the relationship between the concentration of BPD and units of fluorescence was linear (correlation coefficient >0.99) for concentrations between 0.1 ng/ml and 1 μg/ml. The limit of detection was below 0.1 ng/ml sample which corresponded to 2 ng/ml plasma. […] The 699 nm fluorescence peak of BPD was virtually free from any interference.
In order to determine the level of BPD in plasma during the light treatment, the following experiment was carried out. Fourteen Balb/c mice (22±1 g of weight) were injected with liposomal BPD at 20 μg/mouse (0.9 mg/kg) in 200 μl PBS per mouse. Blood samples were obtained by heart puncture at various time intervals between 15 min and 2 hours post-injection. Exposure to light started at 15 min post-injection for some mice. The BPD concentration in plasma was determined as described above.

[2] = in vivo; cited from earlier work
[3] = tested on: Red blood cells; details: after the virucidal treatment; cited from earlier work
[4] = BPD concentration in plasma of mice injected with P815 cells; type: in vivo, DBA/2 mice; details: for BPD in Plasma: DBA/2 mice injected with P815 cells; for BPD in Plasma, % of dark control: P815
Method: as §1
(§2) Male mature DBA/2 and Balb/c mice were injected intravenously with P815 and L1210 cells, respectively, preincubated for 1 hour with BPD (liposomal) at 100 ng/ml. Immediately before animal injection, an additional 2 μg of BPD was added to the syringes containing cells. […] One group of mice (shaved and depilated) was exposed immediately to red light (600-900 nm) in the light box for 1.5 hours (162 J/cm^2); the other group was kept in the dark as the control.
(§3) Immediately after exposure to light, blood samples were obtained by a heart puncture under halothane anesthesia. The concentration of BPD in plasma of light-exposed and control mice was determined by fluorescence. The number of clonogenic tumor cells in mouse blood was determined by culturing blood samples in culture medium supplemented with 10% bovine serum, using a limiting dilution assay protocol.

[5] = tested on: skin; details: DBA/2, 4 mg/kg, cited from earlier work
[6] = tested on: skin; assay: Skin changes and general behavior after treatment (Example 5 and preceding examples); type: in vivo, mice; details: maximum observation period 2 weeks
[7] = tested on: virus-infected T cells; details: after exposure of BPD-treated, virus-infected T cells to light; cited from earlier work
[8] = tested on: L1210 cells; assay: Surviving clonogenic L1210 cells in mouse blood; type: in vivo, Balb/c mice; details: for Surviving cells in blood: average of 3 mice/group
Method: as §2, §3

[9] = tested on: mouse blood; assay: Blood cell morphology 2 weeks post-treatment; type: in vivo, Balb/c mice
Method: Blood Tests: Blood was drawn into syringes containing 50 μl of heparin (1000 units/ml saline). Blood samples (0.45 ml) from at least 1 mouse per time point were sent to the Diagnostic Laboratory at the University Hospital, University of British Columbia site, for analysis by a Coulter Counter. Blood morphology was determined on blood films prepared from selected samples by a laboratory technologist.
Six Balb/c mice (22±1 g weight) were prepared as described above. Five mice were injected twice (24 hour interval) with BPD from DMSO stock (not liposomal BPD) and exposed to light 1 hour after the injection. One mouse was not injected but was exposed to light (light-only control). During the first treatment the mice were injected with 15 μg BPD/mouse in 200 μl of PBS. During the second treatment the mice were injected with 20 μg BPD/mouse (0.9 mg/kg). A single mouse was used as a control for both treatments.
Immediately post-injection (on both occasions) the animals were kept for 1 hour in the dark and then were placed in individual plastic containers (9×4×5 cm), which were placed in the light box and exposed to light. The individual mice were removed from the light box at different intervals: 15, 30, 45, 60 and 75 min, respectively. The light doses delivered at the surface of the skin were 27, 54, 81, 108 and 135 J/cm^2, respectively. On the second occasion the same light doses were used; however, mice receiving higher light doses on day 1 received lower doses on day 2. The control mouse was exposed to light for 60 min on both occasions. During light exposure, the mice were constantly observed for signs of discomfort or itching. After the second light exposure, the mice were observed daily for a period of 2 weeks for appearance of the skin and general pattern of behavior.
Two weeks post-treatment blood samples were obtained from each mouse by a heart puncture, under halothane anesthesia. Then the mice were sacrificed and autopsied. Their spleen, liver and kidneys were weighed.

[10] = BPD concentration in plasma of mice injected with L1210 cells; type: in vivo, Balb/c mice; details: for BPD Concentration in Plasma: Balb/c mice injected with L1210 cells; for BPD Concentration in Plasma, % of dark control: L1210
Method: as §1, §2, §3

Substance: benzoprophyrin derivative monoacid ring A [BPD]
- plasma level of BPD at the beginning of exposure to light ([1]; 1 hour post-injection, as in Example 1, 0.9 mg/kg): about 4 μg/ml
- Plasma Conc. ([1]; 0.83 mg/kg, 20 min post injection): 4680 ng/mL
- Plasma Conc. ([1]; 0.83 mg/kg, 2 h 5 min post injection (text: 2 hours), 125 min): 2440 ng/mL
- Plasma Conc. ([1]; 0.87 mg/kg, 15 min post injection): 6320 ng/mL
- Plasma Conc. ([1]; 0.87 mg/kg, 1 h 38 min post injection, 98 min): 1800 ng/mL
- Plasma Conc. ([1]; 0.87 mg/kg, 1 h 42 min post injection, 102 min): 3220 ng/mL
- Plasma Conc. ([1]; 0.91 mg/kg, 1 h 24 min post injection, 84 min): 2920 ng/mL
- Plasma Conc. ([1]; 0.91 mg/kg, 1 h 32 min post injection, 92 min): 2980 ng/mL
- Plasma Conc. ([1]; 0.95 mg/kg, 1 h 23 min post injection, 83 min): 3260 ng/mL
- time of accumulation of BPD in the skin [2]: up to 5 hours
- red blood cell viability [3]: appeared viable
- Percent photodegraded ([4]; DBA/2, P815, 162 J/cm^2): 38%
- BPD in Plasma ([4]; Dark control): 94.09 ng/mL
- BPD in Plasma, % of dark control ([4]; Dark control): 100%
- BPD in Plasma ([4]; Light exposed (162 J/cm^2)): 58.14 ng/mL
- BPD in Plasma, % of dark control ([4]; Light exposed (162 J/cm^2)): 62%
- immediate post-exposure changes in the skin ([5]; 153 J/cm^2 (170 mW/cm^2) at 3 h): no immediate post-exposure changes in the skin were observed
- skin necrosis ([5]; 153 J/cm^2 (170 mW/cm^2) at 3 h, within first 24 hour post-exposure, progressed up to 96 hours): severe skin necrosis
- healing of wounds ([5]; 153 J/cm^2, eventually): the wounds healed and the hair regrew
- skin photosensitivity and change in behavior [6]: neither skin photosensitivity nor change in the behavior of animals were observed
- effect on virus-infected T cell membrane [7]: holes developed in the T cell membrane, which increased in size until the membrane completely decomposed
- Surviving cells in blood ([8]; Dark control): 234 L1210 cells/2 ml blood/mouse
- Surviving cells in blood ([8]; Light exposed (162 J/cm^2)): 21 L1210 cells/2 ml blood/mouse
- destruction of BPD pre-loaded tumor cells ([8]; whole body exposure to red light (L1210 and P815 examples)): a large number of BPD pre-loaded tumor cells were destroyed
- Monocytes ([9]; mouse 1, light 27 then 135 J/cm^2): 1 % WBC
- Granulocytes ([9]; mouse 1, light 27 then 135 J/cm^2, normal 12-15): 9 % WBC
- Lymphocytes ([9]; mouse 1, light 27 then 135 J/cm^2, normal 65-85): 90 % WBC
- Monocytes ([9]; mouse 2, light 54 then 108 J/cm^2): 1 % WBC
- Granulocytes ([9]; mouse 2, light 54 then 108 J/cm^2, normal 12-15): 11 % WBC
- Lymphocytes ([9]; mouse 2, light 54 then 108 J/cm^2, normal 65-85): 88 % WBC
- Monocytes ([9]; mouse 3, light 81 then 81 J/cm^2): 3 % WBC
- Granulocytes ([9]; mouse 3, light 81 then 81 J/cm^2, normal 12-15): 19 % WBC
- Lymphocytes ([9]; mouse 3, light 81 then 81 J/cm^2, normal 65-85): 78 % WBC
- Monocytes ([9]; mouse 4, light 108 then 54 J/cm^2): 2 % WBC
- Granulocytes ([9]; mouse 4, light 108 then 54 J/cm^2, normal 12-15): 36 % WBC
- Lymphocytes ([9]; mouse 4, light 108 then 54 J/cm^2, normal 65-85): 62 % WBC
- Monocytes ([9]; mouse 5, light 135 then 27 J/cm^2): 1 % WBC
- Granulocytes ([9]; mouse 5, light 135 then 27 J/cm^2, normal 12-15): 7 % WBC
- Lymphocytes ([9]; mouse 5, light 135 then 27 J/cm^2, normal 65-85): 92 % WBC
- Percent photodegraded ([10]; Balb/c, L1210, 162 J/cm^2): 59%
- BPD Concentration in Plasma ([10]; Dark control): 126.45 ng/mL
- BPD Concentration in Plasma, % of dark control ([10]; Dark control): 100%
- BPD Concentration in Plasma ([10]; Light exposed (162 J/cm^2)): 52.23 ng/mL
- BPD Concentration in Plasma, % of dark control ([10]; Light exposed (162 J/cm^2)): 41%
